Data on 30 molecules can be found in ChEMBL document CHEMBL4312016, “Amide-sulfamide modulators as effective anti-tumor metastatic agents targeting CXCR4/CXCL12 axis” (Eur J Med Chem, 2020).

Calls of active or inactive are those of the source. The rule behind the calls is not given here. A value given as a limit tells only on which side of the number the result lay.

Data set [1] has as its target C-X-C chemokine receptor type 4 (Homo sapiens) (UniProt P61073). Kind of data set: Competitive binding affinity at CXCR4 in human MDA-MB-231 cells preincubated for 10 mins followed by biotinylated TN14003 addition further incubated for 30 mins by fluorescence microscopy. In kind it is cell-based.
The subject of data set [2] is MDA-MB-231. As to the kind of experiment: Inhibition of metastasis in human MDA-MB-231 cells assessed as decrease in p-4E-BP1 expression at 10 uM incubated for 24 hrs by Western blot analysis. In kind it is functional, cell-based.
For data set [3], the system named is MDA-MB-231. As to the kind of experiment: Inhibition of cell migration in human MDA-MB-231 cells at 10 uM incubated for 24 hrs by inverted microscopy. It counts as functional, cell-based.
For the next data set, the system named is HUVEC. As to the kind of experiment: Antiangiogenic activity in HUVEC assessed as inhibition of tube formation at 10 uM incubated for 4 hrs by matrigel assay. It counts as functional, cell-based. To be noted: Homo sapiens.
In data set [4] the test system is MDA-MB-231. Kind of data set: Inhibition of cell migration in human MDA-MB-231 cells incubated for 24 hrs by inverted microscopy. It counts as functional, cell-based.
Data set [5] relates to MDA-MB-231. Kind of data set: Antimetastatic activity against human MDA-MB-231 cells xenografted in BALB/c mouse assessed as reduction in lung metastasis at 20 mg/kg, ip administered twice a day for 2 weeks and measured on day 14 relative to control. It counts as functional. Particulars: MDA-MB-231, ip, 336 h. A general note: Xenograft models place foreign cells or tissue in a host animal.

Data set [6] deals with MDA-MB-231. Kind of data set: Inhibition of metastasis in human MDA-MB-231 cells assessed as decrease in P70S6K expression at 10 uM incubated for 24 hrs by Western blot analysis. It counts as functional, cell-based. (In general: In western blotting, separated proteins are transferred to a membrane and probed.)
The nature of data set [7]: Toxicity in BALB/c mouse xenografted with human MDA-MB-231 cells assessed as effect on body weight at 20 mg/kg, po administered twice a day for 2 weeks. It counts as organism-based. To be noted: in vivo, 336 h.
In data set [8] the test system is MDA-MB-231. Kind of data set: Antimetastatic activity against human MDA-MB-231 cells xenografted in BALB/c mouse assessed as reduction in lung metastatic nodules at 20 mg/kg, ip administered twice a day for 2 weeks and measured on day 14. In kind it is functional, organism-based.
Data set [9] concerns MDA-MB-231. Kind of data set: Inhibition of fibronectin-induced cell adhesion in human MDA-MB-231 cells at 1 to 10 uM incubated for 6 hrs by inverted microscopy. In kind it is functional, cell-based.
Data set [10] addresses C-X-C chemokine receptor type 4 (Homo sapiens) (UniProt P61073). As to the kind of experiment: Inhibition of CXCR4-mediated chemotaxis in human MDA-MB-231 cells assessed as reduction in CXCL12alpha-induced cell invasion after 22 hrs by hematoxylin/eosin dye-based matrigel assay relative to control. Also noted: concentration or dose not given beside the values. Particulars: concentration not given here.

Data set [11] concerns MDA-MB-231. As to the kind of experiment: Inhibition of metastasis in human MDA-MB-231 cells assessed as decrease in p-mTOR expression at 10 uM incubated for 24 hrs by Western blot analysis. In kind it is functional, cell-based.
For data set [12], the target named is C-X-C chemokine receptor type 4 (Homo sapiens) (UniProt P61073). Kind of data set: Inhibition of CXCR4-mediated chemotaxis in human MDA-MB-231 cells assessed as reduction in CXCL12alpha-induced cell invasion after 22 hrs by hematoxylin/eosin dye-based matrigel assay.
Chain of C-X-C chemokine receptor type 4 (Homo sapiens) (P61073 whole entry): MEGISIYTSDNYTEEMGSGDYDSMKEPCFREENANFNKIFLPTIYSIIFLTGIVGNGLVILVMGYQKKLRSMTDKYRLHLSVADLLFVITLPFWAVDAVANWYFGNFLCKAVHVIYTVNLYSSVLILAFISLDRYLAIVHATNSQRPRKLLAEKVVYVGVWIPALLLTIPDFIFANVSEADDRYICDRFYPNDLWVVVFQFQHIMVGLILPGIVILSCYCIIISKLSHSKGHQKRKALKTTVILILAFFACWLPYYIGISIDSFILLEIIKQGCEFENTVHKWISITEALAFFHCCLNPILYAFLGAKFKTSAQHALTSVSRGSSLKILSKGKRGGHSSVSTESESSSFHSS

For the molecule `COc1ccccc1C(=O)NCc1ccc(CNS(=O)(=O)c2ccc(F)cc2)cc1`, the EC in data set [1] is 100 nM.

On to `O=C(NCc1ccc(CNS(=O)(=O)c2ccccc2F)cc1)c1cccnc1`, for which the EC in [1] was determined as 100 nM.

Take `COc1ccccc1C(=O)NCc1ccc(CNS(=O)(=O)c2ccccc2C)cc1`: in [1], the EC was 1000 nM.

For orientation: inhibition means the drop in the measured response relative to a control, in per cent. A word on the inhibition in vivo: it is how much of the control response was suppressed. `O=C(NCc1ccc(CNS(=O)(=O)c2ccc(F)cc2)cc1)c1cccnc1`: the inhibition entry in the data set on MDA-MB-231 [2], in the data set with MDA-MB-231 [3], with HUVEC, in the data set with MDA-MB-231 [6], in the data set with MDA-MB-231 [9] and with MDA-MB-231 [11] was “Active” throughout. For the same molecule, the values for the inhibition entry (in the data set with MDA-MB-231 [4]; in [10]) were “Dose-dependent effect” and 92%, respectively. The inhibition in vivo at 20 mg/kg in the data set with MDA-MB-231 [5] stood at 43%. In addition, the Activity entry in [7] is listed as “Non-Toxic”. Moreover, the result in the data set with MDA-MB-231 [8] was Active. The same molecule had an EC in [1] of 100 nM.

Consider `COc1ccccc1C(=O)NCc1ccc(CNS(=O)(=O)c2ccccc2F)cc1`, for which the inhibition result in [12] was “inactive”. In [1], this molecule yielded an EC of 1 nM.

Regarding `O=C(NCc1ccc(CNS(=O)(=O)c2ccccc2Cl)cc1)c1cccnc1`, the inhibition entry with MDA-MB-231 [3], in the data set with HUVEC and in the data set with MDA-MB-231 [9] was “Active” each time. Further, the EC in [1] is 100 nM. The inhibition in data set [10] was found to be 96%.

`O=C(NCc1ccc(CNS(=O)(=O)c2cccc(Cl)c2)cc1)c1cccnc1` had an EC in data set [1] of 100 nM.

In turn, `Cc1ccccc1S(=O)(=O)NCc1ccc(CNC(=O)c2cccnc2)cc1` gave an EC in data set [1] of 1000 nM.

Molecule `Cc1ccccc1C(=O)NCc1ccc(CNS(=O)(=O)c2cccc(F)c2)cc1` displayed an EC in data set [1] of 100 nM.

In data set [1], `Cc1ccccc1C(=O)NCc1ccc(CNS(=O)(=O)c2ccc([N+](=O)[O-])cc2)cc1` registered an EC of 100 nM.

As for `Cc1ccccc1C(=O)NCc1ccc(CNS(=O)(=O)c2cccc(Cl)c2)cc1`, the inhibition entry in the data set with MDA-MB-231 [3] and with MDA-MB-231 [9] was “Active” in each case. Besides, in data set [1], the EC was determined as 100 nM. In addition, the inhibition in data set [10] worked out at 99%.

With `O=C(NCc1ccc(CNS(=O)(=O)c2cccc(F)c2)cc1)c1cccnc1`, the EC in data set [1] turned out to be 1000 nM.

`COc1ccccc1C(=O)NCc1ccc(CNS(=O)(=O)c2ccccc2Cl)cc1`: the inhibition entry in the data set on MDA-MB-231 [3] and in the data set with MDA-MB-231 [9] was “Active” throughout. The molecule also yielded an EC in data set [1] of 100 nM. In [10], the inhibition was 99%.

Consider `COc1ccccc1C(=O)NCc1ccc(CNS(=O)(=O)c2cccc3ccccc23)cc1`, for which the EC in data set [1] is more than 1000 nM.

`O=C(NCc1ccc(CNS(=O)(=O)c2cccc3ccccc23)cc1)c1cccnc1` registered an EC in data set [1] of 1000 nM.

In data set [1], `Cc1ccccc1C(=O)NCc1ccc(CNS(=O)(=O)c2cccc3ccccc23)cc1` yielded an EC of 100 nM.

Turning to `O=C(NCc1ccc(CNS(=O)(=O)c2ccc(Cl)cc2)cc1)c1cccnc1`, in [1], the EC is 1000 nM.

Regarding `Cc1ccccc1C(=O)NCc1ccc(CNS(=O)(=O)c2ccc(Cl)cc2)cc1`, in data set [1], the EC is 1 nM.

In turn, `Cc1ccccc1C(=O)NCc1ccc(CNS(=O)(=O)c2ccc(F)cc2)cc1` showed an EC in data set [1] of 10 nM.

With `COc1ccccc1C(=O)NCc1ccc(CNS(=O)(=O)c2ccc(Cl)cc2)cc1`, the EC in data set [1] amounted to 1000 nM.

Turning to `Cc1cccc(S(=O)(=O)NCc2ccc(CNC(=O)c3ccccc3C)cc2)c1`, the EC in data set [1] is 1000 nM.

Take `COc1ccccc1C(=O)NCc1ccc(CNS(=O)(=O)c2cccc(Cl)c2)cc1`: in [1], the EC worked out at 1000 nM.

As to `Cc1cccc(S(=O)(=O)NCc2ccc(CNC(=O)c3cccnc3)cc2)c1`, the EC in data set [1] is 10 nM.

`COc1ccccc1C(=O)NCc1ccc(CNS(=O)(=O)c2cccc(C)c2)cc1`: the EC in [1] was determined as 1000 nM.

As to `Cc1ccccc1C(=O)NCc1ccc(CNS(=O)(=O)c2ccccc2Cl)cc1`, the EC in data set [1] is 1000 nM.

`Cc1ccccc1C(=O)NCc1ccc(CNS(=O)(=O)c2ccccc2C)cc1`: the inhibition result with MDA-MB-231 [3], in the data set on HUVEC and with MDA-MB-231 [9] was “Active” each time. The EC in [1] stood at 10 nM. Further, the inhibition in data set [10] stood at 99%.

Regarding `O=C(NCc1ccc(CNS(=O)(=O)c2ccc([N+](=O)[O-])cc2)cc1)c1cccnc1`, in [12], the inhibition entry was “inactive”. For the same molecule, the EC in [1] was found to be 100 nM.

With `COc1ccccc1C(=O)NCc1ccc(CNS(=O)(=O)c2cccc(F)c2)cc1`, the EC in data set [1] is 1000 nM.

`Cc1ccccc1C(=O)NCc1ccc(CNS(=O)(=O)c2ccccc2F)cc1`: the EC in data set [1] worked out at 1000 nM.

For `COc1ccccc1C(=O)NCc1ccc(CNS(=O)(=O)c2ccc([N+](=O)[O-])cc2)cc1`, in data set [1], the EC amounted to 100 nM.
